Results on three molecules are retold here after patent US8569245B2, “Protease inhibitors, compositions and methods of use” (University of Florida Research Foundation, Inc., priority 2009, dated 2013).

Data set [1] concerns MCF7 cells. The data set is described as follows: Cellular uptake and inhibition of cellular cathepsins, treated cells then lysed, cathepsin D/E substrate. Format: cell-based. As for the experimental part: MCF7 cells were cultured in Dulbecco's Modified Eagle Medium (DMEM, Invitrogen) containing 10% fetal bovine serum (FBS, HyClone, Logan, Utah), in a humidified atmosphere containing 5% CO2 at 37° C. Briefly, MCF7 cells were seeded into 24-well plates. […] After 1 h incubation the medium was removed and the cells were trypsinized for 10 min, before being collected by centrifugation and lysed with NP-40 lysis buffer (1% NP-40, 50 mM NaOAc, pH 4.0). The lysate (50 μL) from each well was incubated at 37° C. with 10 μM Mca-[…]Dnp)-D-Arg-NH2 (the same substrate used for cathepsin D and E in other assays) in 50 mM NaOAc (pH 4.0, total volume 100 μL). The reaction was monitored by measuring the increase in fluorescence (λex=320 nm, λem=405 nm).
After this time, cells were washed, lysed and then the protease activity of the lysate was measured with a fluorogenic cathepsin D/E substrate (see FIG. 9A).

The target in another data set is T1, cathepsin E (Homo sapiens, UniProt P14091).
T1 construct: Reaction Biology Corp. (ran the assay)
T1 sequence (P14091 54-396): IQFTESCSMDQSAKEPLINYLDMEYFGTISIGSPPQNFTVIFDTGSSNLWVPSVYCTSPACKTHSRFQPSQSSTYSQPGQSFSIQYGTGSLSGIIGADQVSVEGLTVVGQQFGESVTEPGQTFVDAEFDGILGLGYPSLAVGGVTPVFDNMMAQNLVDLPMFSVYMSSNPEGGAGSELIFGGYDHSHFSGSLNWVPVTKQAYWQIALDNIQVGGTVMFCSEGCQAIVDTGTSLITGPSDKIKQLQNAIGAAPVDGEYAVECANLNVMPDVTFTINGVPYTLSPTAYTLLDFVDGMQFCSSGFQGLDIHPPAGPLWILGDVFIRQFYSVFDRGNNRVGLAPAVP
The data set is described as follows: Protease inhibition screen and dose-response assay. Format: biochemical. As to conditions: 10 μM. The method, then: (§1) After incubation at room temperature for 10-15 min, the substrate was added, after which fluorescence at each relevant Ex/Em wavelength was measured every 5 min for 2 h. The substrate alone in the reaction buffer served as background. […] Each enzyme assay was performed in duplicate by Reaction Biology Corp. (Malvern, Pa.).
(§2) Assays were carried out by Reaction Biology Corp. (Malvern, Pa.). Enzyme activity (in %), calculated as above, was used to determine IC50 values with non-linear regression in GraphPad Prism (GraphPad Software, Inc., La Jolla, Calif.).

The next data set has as its target T2, cathepsin D (Homo sapiens, UniProt P07339).
T2 construct: Reaction Biology Corp. (ran the assay)
Format: biochemical. As to conditions: 10 μM. As for the experimental part: as §1, §2

For data set [2], the system named is TH cells induced by allogeneic activated DC. As to the kind of experiment: Allogeneic mixed lymphocyte reaction, DCs and TH cells from different donors. Format: cell-based, human. As to conditions: allogeneic MLR.
In data set [3] the test system is human peripheral blood mononuclear cells (PBMCs). As to the kind of experiment: Antigen-stimulated T cell proliferation in PBMCs (flow cytometry, CD3+ gate). Format: cell-based. As to conditions: same experiment, PBMC. The method, then: PBMCs were isolated from buffy coats (leukopac, PBL) obtained from Lifesouth Community Blood Center (Gainesville, Fla., USA) by Ficoll-Hypaque density gradient centrifugation using Lymphoprep (Axis-Shield, Norway). Briefly, the contents of the buffy coat were diluted to three times its volume in sterile 1×PBS pH 7.4 (Gibco, California, USA). The dilution was layered onto the Lymphoprep in a 2:1 ratio. The sample was then centrifuged for 25 min at room temperature and 250 g. The PBMCs were collected at the interface, washed twice with PBS and centrifuged each time for 10 min at 4° C. and 250 g. Cell viability was assessed by trypan blue exclusion. […]
Experimental pelleted cells were incubated for 30 min at 4° C. with antibodies and washed with staining buffer (PBS+2% BSA+0.1% Na azide). […] Quantitation was carried out using FCS Express (version 3, De Novo Software, Los Angeles, Calif.) by gating for lymphocytes based on forward and side scatter properties followed by analysis of the percentages of positively stained quadrants. 50,000 cells were analyzed for each sample and isotype-specific immunoglobulin controls were run for each fluorochrome. […]

Data set [4] is described as follows: Solubility in DMSO for dilution series. Format: physicochemical.
The test system of data set [5] is MCF7 cells. The settings on record: literature (Zaidi et al. 2007); cited from earlier work.

Starred links: 1 amine or outer side, 2 acyl side, 3 side chain; linkers in the order of their positions; H or OH if unused. Non-standard residues stand in square brackets, D forms with d. Residues, ends and D or L forms follow the SMILES beside them. *: point of attachment. Sta = CC(C)C[C@H](N)[C@@H](O)CC(=O)O; X2 = CC(C)CC(N[*:1])C(O)CC(=O)[*:2]; NMe2Val = CC(C)[C@@H](C(=O)*)N(C)C; dNMeF = CN[C@H](Cc1ccccc1)C(=O)O; NMeF = CN[CH](Cc1ccccc1)C(=O)O; NMeQ = CN[CH](CCC(N)=O)C(=O)O; dHiv = CC(C)[C@@H](O)C(=O)O; Hiv = CC(C)[C@H](O)C(=O)O; Isovaleryl = CC(C)CC(=O)*; X1 = CCC(C)C(O)C(=O)*

T2 sequence (P07339 65-412): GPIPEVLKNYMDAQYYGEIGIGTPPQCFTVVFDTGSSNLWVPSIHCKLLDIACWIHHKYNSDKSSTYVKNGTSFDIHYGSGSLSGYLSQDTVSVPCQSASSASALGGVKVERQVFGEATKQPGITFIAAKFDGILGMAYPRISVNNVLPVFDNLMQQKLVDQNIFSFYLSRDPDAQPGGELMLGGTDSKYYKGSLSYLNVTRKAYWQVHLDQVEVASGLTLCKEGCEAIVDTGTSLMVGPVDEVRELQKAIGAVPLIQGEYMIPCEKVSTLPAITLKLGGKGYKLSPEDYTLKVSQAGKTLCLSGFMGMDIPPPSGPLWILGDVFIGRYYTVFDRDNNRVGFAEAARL

In the case of `COC(=O)[C@@H]1CCCN1C(=O)[C@@H](Cc1ccccc1)N(C)C(=O)[C@H](C)NC(=O)[C@@H](NC(=O)C[C@H](O)[C@H](CC(C)C)NC(=O)[C@H](CC(N)=O)NC(=O)[C@H](CC(C)C)NC(=O)[C@H](OC(=O)[C@@H](OC(=O)[C@H](C(C)C)N(C)C)C(C)C)C(C)C)[C@@H](C)O` [Compound 1, grassystatin A] (NMe2Val-[Hiv][dHiv]LN[Sta]TA[dNMeF]P-OMe), the “ability to enter cells” value in the data set with MCF7 cells [1] (MCF7 cells, inferred from cellular vs lysate IC50) is recorded as “more efficiently enter cells than pepstatin A”. The “inhibitory activity in protease panel” value against cathepsin E and on cathepsin D was “active” throughout. Further, the DC stimulated proliferation entry in data set [2] was “no effect”. In addition, the T cell viability result in data set [3] is recorded as “unaffected”.
As to `CCC(C)C(O)C(=O)NC(CC(C)C)C(=O)N(C)C(CCC(N)=O)C(=O)NC(CC(C)C)C(O)CC(=O)NC(C(=O)NCC(=O)N(C)C(Cc1ccccc1)C(=O)N1CCCC1C(=O)OC)C(C)CC` (centres unmarked) [Compound 3, grassystatin C] (X1-L[NMeQ][X2]IG[NMeF]P-OMe; configuration not given here), in data set [4], the “solubility in DMSO” value was “insoluble”.
On to `CC(C)CC(=O)N[C@H](C(=O)N[C@H](C(=O)N[C@@H](CC(C)C)[C@@H](O)CC(=O)N[C@@H](C)C(=O)N[C@@H](CC(C)C)[C@@H](O)CC(=O)O)C(C)C)C(C)C` [pepstatin A, reference compound] (Isovaleryl-VV[Sta]A[Sta]-OH), for which the “apparent IC50 in a cellular system” value in the data set with MCF7 cells [1] (MCF7 cells treated 1 h, lysate protease activity) is given as “fairly similar”. Besides, the cell permeability entry in the data set on MCF7 cells [5] was “poor cell permeability”.
